Assays:
PC-3 = assay: In vitro cytotoxicity screening (sulphodamine B dye), PC-3; format: cell-based; settings: Homo sapiens; PC-3 prostate cancer cell line
Procedure: (§1) Cells at sub confluent stage were harvested from the flask by treatment with trypsin (0.5% in PBS containing 0.02% EDTA) for determination of cytotoxicity. […] The cell suspensions of required cell density were prepared in complete growth medium with gentamycin (50 μg/ml) for determination of cytotoxicity. The cells (100 μl/well) were inoculated in 96 well tissue culture plates. The cells were allowed to grow for 24 hrs temperature of 37° C. and in a humidified atmosphere of 5% CO2 in air. Stock solution of (20 mM) of test material was prepared in DMSO. The stock solution was serially diluted with complete growth medium containing 50 μg/ml of gentamycin to obtain […] working test solutions of 1., 2, 5, 10, 50 and 100 μM.
(§2) The media were supplemented with FCS (10%), penicillin (100 Units/ml), streptomycin (100 μg/ml) and glutamine (2 mM) and cells were grown in CO2 incubator (Hera cell, Heraeus, USA) at 37° C. with 90% humidity and 5% CO2.

SW-620 = assay: In vitro cytotoxicity screening (sulphodamine B dye), SW-620; format: cell-based; settings: Homo sapiens; SW-620 colon cancer cell line
Procedure: as §1, §2

DU-145 = assay: In vitro cytotoxicity screening (sulphodamine B dye), DU-145; format: cell-based; settings: Homo sapiens; DU-145 prostate cancer cell line
Procedure: as §1, §2

| melting point | SMILES | IC50 (PC-3) | IC50 (SW-620) | IC50 (DU-145) |
| --- | --- | --- | --- | --- |
| 245 to 247 °C | COc1ccc(N2CC23C(=O)O[C@@H]2[C@H]3CC[C@H](C)[C@]3(O)C=CC(=O)[C@@]23C)cc1 (some centres unmarked) |  |  |  |
| 241 to 242 °C | Cc1ccc(N2CC23C(=O)O[C@@H]2[C@H]3CC[C@H](C)[C@]3(O)C=CC(=O)[C@@]23C)cc1 (some centres unmarked) |  |  |  |
|  | COc1ccc(C2=NOC3(C2)C(=O)O[C@@H]2[C@H]3CC[C@H](C)[C@]3(O)C=CC(=O)[C@@]23C)cc1 (some centres unmarked) [Compound -1] | 35 µM | 41 µM | 20 µM |
| 138.2 °C | C[C@H]1CC[C@@H]2[C@@H](OC(=O)C23CC(c2ccc(Cl)cc2)=NO3)[C@]2(C)C(=O)C=C[C@@]12O (some centres unmarked) [Compound -2] | 49 µM | 51 µM | 43 µM |
|  | C[C@H]1CC[C@@H]2[C@@H](OC(=O)C23CC(c2ccc(N(C)C)cc2)=NO3)[C@]2(C)C(=O)C=C[C@@]12O (some centres unmarked) [Compound -4] | 6.33 µM |  |  |
| 129.2 °C | C[C@H]1CC[C@@H]2[C@@H](OC(=O)C23CC(c2ccc(O)cc2)=NO3)[C@]2(C)C(=O)C=C[C@@]12O (some centres unmarked) [Compound -5] |  | 89 µM | 93 µM |
|  | C[C@H]1CC[C@@H]2[C@@H](OC(=O)C23CC(c2cccc([N+](=O)[O-])c2)=NO3)[C@]2(C)C(=O)C=C[C@@]12O (some centres unmarked) [Compound -11] | 55 µM | 49 µM | 51 µM |
|  | C[C@H]1CC[C@@H]2[C@@H](OC(=O)C23CC(c2cccs2)=NO3)[C@]2(C)C(=O)C=C[C@@]12O (some centres unmarked) [Compound -12] | 29 µM | 34 µM | 19 µM |
| 277 °C | Cc1ccccc1C1=NOC2(C1)C(=O)O[C@@H]1[C@H]2CC[C@H](C)[C@]2(O)C=CC(=O)[C@@]12C (some centres unmarked) [Compound -13] | 10 µM | 5 µM | 12 µM |
|  | Cc1cccc(C2=NOC3(C2)C(=O)OC2C3CC[C@H](C)[C@]3(O)C=CC(=O)[C@@]23C)c1 (some centres unmarked) [Compound -14] | 66.6 µM |  |  |
| 193 °C | C[C@H]1CC[C@@H]2[C@@H](OC(=O)C23CC(c2ccc(F)cc2)=NO3)[C@]2(C)C(=O)C=C[C@@]12O (some centres unmarked) [Compound -15] | 27 µM | 3.6 µM | 13 µM |
| 147 °C | C[C@H]1CC[C@@H]2[C@@H](OC(=O)C23CC(c2ccc(C#N)cc2)=NO3)[C@]2(C)C(=O)C=C[C@@]12O (some centres unmarked) [Compound -16] | 32 µM | 53 µM | 26 µM |
| 183 °C | C[C@H]1CC[C@@H]2[C@@H](OC(=O)C23CC(c2ccc(Cl)cc2)N(c2ccccc2)O3)[C@]2(C)C(=O)C=C[C@@]12O (some centres unmarked) [Compound -18] | 7.8 µM | 7.5 µM | 7 µM |
| 181 °C | Cc1ccccc1C1CC2(ON1c1ccccc1)C(=O)O[C@@H]1[C@H]2CC[C@H](C)[C@]2(O)C=CC(=O)[C@@]12C (some centres unmarked) [Compound -19] | 6.4 µM | 6 µM | 5.6 µM |
| 185 °C | C[C@H]1CC[C@@H]2[C@@H](OC(=O)C23CC(c2ccc(Br)cc2)N(c2ccccc2)O3)[C@]2(C)C(=O)C=C[C@@]12O (some centres unmarked) [Compound -20] | 5.8 µM | 6.7 µM | 6.3 µM |
| 114 °C | Cc1ccc(C2CC3(ON2c2ccccc2)C(=O)O[C@@H]2[C@H]3CC[C@H](C)[C@]3(O)C=CC(=O)[C@@]23C)cc1 (some centres unmarked) [Compound -21] | 8.5 µM | 8.7 µM | 8.1 µM |

| melting point | SMILES | IC50 (PC-3) | IC50 (SW-620) | IC50 (DU-145) |
| --- | --- | --- | --- | --- |
| 170 °C | C[C@H]1CC[C@@H]2[C@@H](OC(=O)C23CC(c2ccccc2)N(c2ccccc2)O3)[C@]2(C)C(=O)C=C[C@@]12O (some centres unmarked) [Compound -23] | 5.7 µM | 5.8 µM | 5.6 µM |
| 154 °C | C[C@H]1CC[C@@H]2[C@@H](OC(=O)C23CC(c2ccc(F)cc2)N(c2ccccc2)O3)[C@]2(C)C(=O)C=C[C@@]12O (some centres unmarked) [Compound -24] | 5.7 µM | 7.3 µM | 6.4 µM |
| 96 °C | COc1ccc(C2CC3(ON2c2ccccc2)C(=O)O[C@@H]2[C@H]3CC[C@H](C)[C@]3(O)C=CC(=O)[C@@]23C)cc1Br (some centres unmarked) [Compound -25] | 5.7 µM | 6.8 µM | 6.3 µM |
| 116 °C | C[C@H]1CC[C@@H]2[C@@H](OC(=O)C23CC(c2ccc(C#N)cc2)N(c2ccccc2)O3)[C@]2(C)C(=O)C=C[C@@]12O (some centres unmarked) [Compound -26] | 4.8 µM | 4.8 µM | 5 µM |
| 197 °C | COc1ccc(Br)cc1C1CC2(ON1c1ccccc1)C(=O)O[C@@H]1[C@H]2CC[C@H](C)[C@]2(O)C=CC(=O)[C@@]12C (some centres unmarked) [Compound -27] | 8.2 µM | 6.1 µM | 7.8 µM |
| 99 °C | COc1ccc(C2CC3(ON2c2ccccc2)C(=O)O[C@@H]2[C@H]3CC[C@H](C)[C@]3(O)C=CC(=O)[C@@]23C)c(OC)c1 (some centres unmarked) [Compound -28] | 11 µM | 7.5 µM | 11 µM |
| 119 °C | COc1cc(C2CC3(ON2c2ccccc2)C(=O)O[C@@H]2[C@H]3CC[C@H](C)[C@]3(O)C=CC(=O)[C@@]23C)cc(OC)c1OC (some centres unmarked) [Compound -29] | 8.6 µM | 5.7 µM | 5.6 µM |
| 108 °C | Cc1cc(C2CC3(ON2c2ccccc2)C(=O)O[C@@H]2[C@H]3CC[C@H](C)[C@]3(O)C=CC(=O)[C@@]23C)cc(C)c1O (some centres unmarked) [Compound -30] |  |  |  |
| 180 °C | C[C@H]1CC[C@@H]2[C@@H](OC(=O)C23CC(c2cccc(Cl)c2)N(c2ccccc2)O3)[C@]2(C)C(=O)C=C[C@@]12O (some centres unmarked) [Compound -31] | 8.2 µM | 6.1 µM | 7.4 µM |
| 158 °C | C[C@H]1CC[C@@H]2[C@@H](OC(=O)C23CC(c2ccccc2[N+](=O)[O-])C(c2ccccc2)O3)[C@]2(C)C(=O)C=C[C@@]12O (some centres unmarked) [Compound -32] | 8.4 µM | 13 µM | 28 µM |
| 111 °C | COc1ccccc1C1CC2(ON1c1ccccc1)C(=O)O[C@@H]1[C@H]2CC[C@H](C)[C@]2(O)C=CC(=O)[C@@]12C (some centres unmarked) [Compound -33] | 81 µM | 53 µM | 91 µM |
|  | C[C@H]1CC[C@@H]2[C@@H](OC(=O)C23CN3c2cccc(Cl)c2)[C@]2(C)C(=O)C=C[C@@]12O (some centres unmarked) [Compound -35] | 86.1 µM | 48.4 µM | 39.5 µM |
|  | COc1ccccc1N1CC12C(=O)O[C@@H]1[C@H]2CC[C@H](C)[C@]2(O)C=CC(=O)[C@@]12C (some centres unmarked) [Compound -37] | 52 µM | 47.3 µM |  |
|  | Cc1cccc(N2CC23C(=O)O[C@@H]2[C@H]3CC[C@H](C)[C@@]3(O)C=CC(=O)[C@@]23C)c1 (some centres unmarked) [Compound -38] | 61.5 µM | 15 µM | 62.5 µM |
|  | Cc1ccccc1N1CC12C(=O)O[C@@H]1[C@H]2CC[C@H](C)[C@]2(O)C=CC(=O)[C@@]12C (some centres unmarked) [Compound -43] | 12.5 µM | 22 µM |  |
| 151 °C | COc1ccc(C2=NOC3(C2)C(=O)O[C@@H]2[C@H]3CC[C@H](C)[C@]3(O)C=CC(=O)[C@@]23C)cc1OC (some centres unmarked) [Compound -80] |  | 86 µM | 84 µM |

| SMILES | melting point | IC50 (PC-3) | IC50 (SW-620) | IC50 (DU-145) |
| --- | --- | --- | --- | --- |
| C[C@H]1CC[C@@H]2[C@@H](OC(=O)C23CN3c2ccccc2)[C@]2(C)C(=O)C=C[C@@]12O (some centres unmarked) [Compound -34] | 245 to 247 °C | 10.6 µM | 87.7 µM | 31.4 µM |
| C[C@H]1CC[C@@H]2[C@@H](OC(=O)C23CN3c2ccccc2[N+](=O)[O-])[C@]2(C)C(=O)C=C[C@]12O (some centres unmarked) [Compound -39] | 222 to 224 °C | 10 µM | 33 µM | 28 µM |
| C[C@H]1CC[C@@H]2[C@@H](OC(=O)C23CN3c2cccc([N+](=O)[O-])c2)[C@]2(C)C(=O)C=C[C@@]12O (some centres unmarked) [Compound -40] | 241 to 242 °C | 10.1 µM | 61 µM |  |

Source: US8609858B2, “Spiro derivatives of parthenin as novel anticancer agents” (Council of Scientific & Industrial Research, priority 2008, dated 2013)
